How the values were obtained:
Assay in all cases: Biomarker study proliferation (CellTiter-Glo)
Assay type in all cases: cell-based
NUGC3 = system: NUGC3
In short: (§1)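 Ten concentrations, threefold apart, starting from a 10 mM DMSO working stock, are applied to cells seeded at 5000/well. Exposure lasts 7 days at 37 °C, 5% CO2, and viability is read by luminescence.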

SW780 = system: SW780
In short: as §1

HT = system: HT
In short: as §1

T47D = system: T47D
In short: as §1

EBC1 = system: EBC1
In short: as §1

HL60 = system: HL60
In short: as §1

TEK1 = system: TEK1
In short: as §1

CACO2 = system: CACO2
In short: as §1

EGL1 = system: EGL1
In short: as §1

TCCSUP = system: TCCSUP
In short: as §1

NCIH1299 = system: NCIH1299
In short: as §1

AN3CA = system: AN3CA
In short: as §1

KARPAS299 = system: KARPAS299
In short: as §1

KURAMOCHI = system: KURAMOCHI
In short: as §1

JHH7 = system: JHH7
In short: as §1

NCIH460 = system: NCIH460
In short: as §1

22RV1 = system: 22RV1
In short: as §1

SiHa = system: SiHa
In short: as §1

SNU449 = system: SNU449
In short: as §1

[1] = Homo sapiens, 168 h, read-out: Anti-proliferation effect IC50
[2] = 168 h, read-out: Anti-proliferation effect IC50

## Cc1cc(NC2CCN(C(=O)O[C@H]3CCN(C(=O)/C=C/CN(C)C)C3)CC2)n2ncc(C(C)C)c2n1 [Example 1, [(3S)-1-[(E)-4-(dimethylamino)but-2-enoyl]pyrrolidin-3-yl] 4-[(3-isopropyl-5-methyl-pyrazolo[1,5-a]pyrimidin-7-yl)amino]piperidine-1-carboxylate]
NUGC3; Homo sapiens, NUGC-3, 168 h, read-out: Anti-proliferation effect IC50
  IC50: 30 nM
NUGC3; NUGC3, STOMACH, 7 days
  Anti-proliferation effect % Inh.: 81%
  Anti-proliferation effect Outcome: Cytotoxic (cytotoxic (IC50<1 μM and % inhibition ≥70%))
SW780; Homo sapiens, SW780, 168 h, read-out: Anti-proliferation effect IC50
  IC50: 74 nM
SW780; SW780, URINARY, 7 days
  Anti-proliferation effect % Inh.: 68%
  Anti-proliferation effect Outcome: Cytostatic (cytostatic (IC50<1 μM and % inhibition <70%))
HT; BLOOD, 7 days
  Anti-proliferation effect % Inh.: 64%
  Anti-proliferation effect Outcome: Cytostatic (cytostatic (IC50<1 μM and % inhibition <70%))
HT; [1]
  IC50: 131 nM
T47D; BREAST, 7 days
  Anti-proliferation effect % Inh.: 68%
  Anti-proliferation effect Outcome: Cytostatic (cytostatic (IC50<1 μM and % inhibition <70%))
T47D; [1]
  IC50: 45 nM
EBC1; EBC1, LUNG, 7 days
  Anti-proliferation effect % Inh.: 83%
  Anti-proliferation effect Outcome: Cytotoxic (cytotoxic (IC50<1 μM and % inhibition ≥70%))
EBC1; Homo sapiens, EBC-1, 168 h, read-out: Anti-proliferation effect IC50
  IC50: 47 nM
HL60; HL60, BLOOD, 7 days
  Anti-proliferation effect % Inh.: 87%
  Anti-proliferation effect Outcome: Cytotoxic (cytotoxic (IC50<1 μM and % inhibition ≥70%))
HL60; Homo sapiens, HL-60, 168 h, read-out: Anti-proliferation effect IC50
  IC50: 45 nM
TEK1; [2]
  IC50: 40 nM
TEK1; TEK1, BILIARY, 7 days
  Anti-proliferation effect % Inh.: 87%
  Anti-proliferation effect Outcome: Cytotoxic (cytotoxic (IC50<1 μM and % inhibition ≥70%))
CACO2; CACO2, INTESTINE, 7 days
  Anti-proliferation effect % Inh.: 60%
  Anti-proliferation effect Outcome: Cytostatic (cytostatic (IC50<1 μM and % inhibition <70%))
CACO2; Homo sapiens, Caco-2, 168 h, read-out: Anti-proliferation effect IC50
  IC50: 189 nM
EGL1; [2]
  IC50: 41 nM
EGL1; EGL1, 7 days
  Anti-proliferation effect % Inh.: 95%
  Anti-proliferation effect Outcome: Cytotoxic (cytotoxic (IC50<1 μM and % inhibition ≥70%))
TCCSUP; Homo sapiens, TCC-SUP, 168 h, read-out: Anti-proliferation effect IC50
  IC50: 40 nM
TCCSUP; TCCSUP, URINARY, 7 days
  Anti-proliferation effect % Inh.: 61%
  Anti-proliferation effect Outcome: Cytostatic (cytostatic (IC50<1 μM and % inhibition <70%))
NCIH1299; Homo sapiens, NCI-H1299, 168 h, read-out: Anti-proliferation effect IC50
  IC50: 195 nM
NCIH1299; NCIH1299, LUNG, 7 days
  Anti-proliferation effect % Inh.: 44%
  Anti-proliferation effect Outcome: Cytostatic (cytostatic (IC50<1 μM and % inhibition <70%))
AN3CA; AN3CA, ENDOMETRIUM, 7 days
  Anti-proliferation effect % Inh.: 67%
  Anti-proliferation effect Outcome: Cytostatic (cytostatic (IC50<1 μM and % inhibition <70%))
AN3CA; Homo sapiens, AN3-CA, 168 h, read-out: Anti-proliferation effect IC50
  IC50: 50 nM
KARPAS299; Homo sapiens, KARPAS-299, 168 h, read-out: Anti-proliferation effect IC50
  IC50: 69 nM
KARPAS299; KARPAS299, BLOOD, 7 days
  Anti-proliferation effect % Inh.: 78%
  Anti-proliferation effect Outcome: Cytotoxic (cytotoxic (IC50<1 μM and % inhibition ≥70%))
KURAMOCHI; [2]
  IC50: 52 nM
KURAMOCHI; KURAMOCHI, OVARY, 7 days
  Anti-proliferation effect % Inh.: 88%
  Anti-proliferation effect Outcome: Cytotoxic (cytotoxic (IC50<1 μM and % inhibition ≥70%))
JHH7; JHH7, 168 h, read-out: Anti-proliferation effect IC50
  IC50: 27 nM
JHH7; JHH7, LIVER, 7 days
  Anti-proliferation effect % Inh.: 88%
  Anti-proliferation effect Outcome: Cytotoxic (cytotoxic (IC50<1 μM and % inhibition ≥70%))
NCIH460; Homo sapiens, NCI-H460, 168 h, read-out: Anti-proliferation effect IC50
  IC50: 47 nM
NCIH460; NCIH460, LUNG, 7 days
  Anti-proliferation effect % Inh.: 97%
  Anti-proliferation effect Outcome: Cytotoxic (cytotoxic (IC50<1 μM and % inhibition ≥70%))
22RV1; 22RV1, PROSTATE, 7 days
  Anti-proliferation effect % Inh.: 77%
  Anti-proliferation effect Outcome: Cytotoxic (cytotoxic (IC50<1 μM and % inhibition ≥70%))
22RV1; Homo sapiens, 22Rv1, 168 h, read-out: Anti-proliferation effect IC50
  IC50: 28 nM
SiHa; CERVIX, 7 days
  Anti-proliferation effect % Inh.: 58%
SiHa; ENDOMETRIUM, 7 days
  Anti-proliferation effect Outcome: Cytostatic (cytostatic (IC50<1 μM and % inhibition <70%))
SiHa; [1]
  IC50: 105 nM
SNU449; Homo sapiens, SNU-449, 168 h, read-out: Anti-proliferation effect IC50
  IC50: 1520 nM
SNU449; SNU449, LIVER, 7 days
  Anti-proliferation effect % Inh.: 8%
  Anti-proliferation effect Outcome: Insensitive (insensitive (IC50≥1 μM))
